Experimental data: US10206909B2, “3-(1H-pyrrolo[2,3-B]pyridin-2-yl)-1H-pyrazolo[4,3-B]pyridines and therapeutic uses thereof” (Samumed, LLC, priority 2015, dated 2019)

What was measured:
Assay type in all cases: cell-based
[1] = test system: Wnt activity (Sp5-Luc reporter, SW480 colon carcinoma cells); assay: Wnt activity screening assay: Sp5-Luc reporter gene assay in SW480 cells; settings: Homo sapiens; for EC50: SW480 cells, overnight incubation; for inhibition at 10 µM: given where EC50 >10 μM, SW480, read-out: percent inhibition at 10 μM
Description: The screening assay for Wnt activity is described as follows. Reporter cell lines can be generated by stably transducing cancer cell lines (e.g., colon cancer) or primary cells (e.g., IEC-6 intestinal cells) with a lentiviral construct that includes a Wnt-responsive promoter driving expression of the firefly luciferase gene.
SW480 colon carcinoma cells were transduced with a lentiviral vector expressing luciferase with a human Sp5 promoter consisting of a sequence of eight TCF/LEF binding sites. SW480 cells stably expressing the Sp5-Luc reporter gene and a hygromycin resistance gene were selected by treatment with 150 μg/mL of hygromycin for 7 days. These stably transduced SW480 cells were expanded in cell culture and used for all further screening activities. Each compound was dissolved in DMSO as a 10 mM stock and used to prepare compound source plates. Serial dilution (1:3, 10-point dose-response curves starting from 10 μM) and compound transfer was performed using the ECHO 550 (Labcyte, Sunnyvale, Calif.) into 384-well white solid bottom assay plates (Greiner Bio-One) with appropriate DMSO backfill for a final DMSO concentration of 0.1%. For Sp5-Luc reporter gene assays, the cells were plated at 4,000 cells/well in 384-well plates with medium containing 1% fetal bovine serum and incubated overnight at 37° C. and 5% CO2. Following incubation, 20 μl of BrightGlo luminescence reagent (Promega) was added to each well of the 384-well assay plates. The plates were placed on an orbital shaker for 2 min and then luminescence was quantified using the Envision (Perkin Elmer) plate reader. Readings were normalized to DMSO only treated cells, and normalized activities were utilized for EC50 calculations using the dose-response log (inhibitor) vs. response -variable slope (four parameters) nonlinear regression feature available in GraphPad Prism 5.0 (or Dotmatics). For EC50 of >10 μM, the percent inhibition at 10 μM is provided.

SW480 colon cancer cells = assay: Cell viability assay (CellTiter-Blue); settings: Homo sapiens; for EC50: 96 h, SW480 cell viability, four days, CellTiter-Blue; for inhibition at 10 µM: given where EC50 >10 μM, SW480 viability, read-out: percent inhibition at 10 μM
Method: Representative compounds were screened using the following assay procedure to assess the effect on cell viability as described below.
Each compound was dissolved in DMSO as a 10 mM stock and used to prepare compound source plates. Serial dilution (1:3, 8-point dose-response curves from 10 μM to 0.0045 μM) and compound transfer was performed using the ECHO 550 (Labcyte, Sunnyvale, Calif.) into 96-well clear bottom, black-walled plates (Corning-Costar).
Approximately 2×10^3 SW480 colon cancer cells were seeded into each well and allowed to incubate in the presence or absence of compound for four days at 37° C./5% CO2. Eight replicates of DMSO-treated cells served as controls and cells treated with compound were performed in duplicate.
After incubation, 20 μL of CellTiter-Blue (Promega) was added to each well allowed to incubate for approximately 3 hours. This reagent was a buffered solution which contains resazurin, metabolically active cells were able to reduce rezarurin (blue) into resorufin (pink) which was highly fluorescent. This measured fluorescence was used as a readout for cell viability.
After incubation, the plates were read at Ex 560 nm Em 590 nm (Cytation 3, BioTek). Dose-response curves were generated and EC50 concentration values were calculated using non-linear regression curve fit in the GraphPad Prism (San Diego, Calif.) or Dotmatics' Studies Software (Bishops Stortford, UK). For EC50 of >10 μM, the percent inhibition at 10 μM is provided.

[2] = test system: primary human mesenchymal stem cells (hMSCs); assay: Chondrogenesis induction in mesenchymal stem cells (nodule count); settings: 144 h, 6 days; for EC50: concentration required to induce 50% levels of chondrogenesis vs TGF-β3, read-out: Conc (nM) of 50% TGF-β3 activity; for Emax: relative to TGF-β3 (10 ng/mL) positive control, read-out: Max. Activity as % TGF-β3 activity
Method: Representative compounds were screened using primary human mesenchymal stem cells (hMSCs) to determine their ability to induce chondrogenesis (process by which cartilage is developed).
Human Mesenchymal Stem Cell Culture: Primary human mesenchymal stem cells (hMSCs) were purchased from Lonza (Walkersville, Md.) and expanded in Mesenchymal Stem Cell Growth Media (Lonza). Cells between passage 3 and 6 were used for the experiments.
Compound Screening: Each compound was dissolved in DMSO as a 10 mM stock and used to prepare compound source plates. Serial dilution (1:3, 6-point dose-response curves from 2700 nM to 10 nM) and compound transfer was performed using the ECHO 550 (Labcyte, Sunnyvale, Calif.) into 96-well clear bottom assay plates (Greiner Bio-One) with appropriate DMSO backfill for a final DMSO concentration of 0.03%. hMSCs were plated at 20,000 cells/well in 250 μL/well Incomplete Chondrogenic Induction Medium (Lonza; DMEM, dexamethasone, ascorbate, insulin-transferrin-selenium [ITS supplement], gentamycin-amphotericin [GA-1000], sodium pyruvate, proline and L-glutamine). TGF-β3 (10 ng/mL) was used as a positive control for differentiation while negative control wells were treated with 75 nL DMSO for normalization and calculating EC50 values. Cells were incubated at 37° C. and 5% CO2 for 6 days. To image chondrogenic nodules, the cells were fixed using 4% formaldehyde (Electron Microscopy Sciences), and stained with 2 μg/mL Rhodamine B (Sigma-Aldrich) and 20 μM Nile Red (Sigma-Aldrich) [Johnson K., et. al, A Stem Cell-Based Approach to Cartilage Repair, Science, (2012). 336(6082), 717-721]. The nodules imaged (4 images per well at 4× magnification) by excitation at 531 nm and emission at 625 nm and quantified using the CellInsight CX5 (Thermo Scientific). Number of nodules in each well was normalized to the average of 3 DMSO treated wells on the same plate using Excel (Microsoft Inc.). The normalized averages (fold change over DMSO) of 3 replicate wells for each compound concentration were calculated. Due to solubility limitations of some of the compounds, curve fitting was incomplete leading to inaccurate EC50 determinations.
Using TGF-β3 as a positive control, the concentration of representative compounds required to induce 50% levels of chondrogenesis is reported. In addition, the maximum activity of each compound and the respective dose that each compound reached maximum chondrogenesis activity is reported.

Question: How did the EC50 [1] turn out when `Fc1cccc(-c2ccnc3[nH]c(-c4n[nH]c5ccc(-c6cncc(CN7CCCCC7)c6)nc45)cc23)c1` [Compound 15, 3-(4-(3-Fluorophenyl)-1H-pyrrolo[2,3-b]pyridin-2-yl)-5-(5-(piperidin-1-ylmethyl)pyridin-3-yl)-1H-pyrazolo[4,3-b]pyridine] was run?
Answer: > 10 µM

Question: What about the inhibition at 10 µM [1] of the same compound?
Answer: 8%

Question: What about the EC50 (SW480 colon cancer cells) of the same compound?
Answer: > 10 µM

Question: What about the inhibition at 10 µM (SW480 colon cancer cells) of the same compound?
Answer: 29.9%

Question: What about the EC50 [2] of the same compound?
Answer: 900 nM

Question: What about the Emax [2] of the same compound?
Answer: 62%

Question: With `CN(C)Cc1cncc(-c2ccc3[nH]nc(-c4cc5c(-c6ccccc6F)ccnc5[nH]4)c3n2)c1` [Compound 69, 1-(5-(3-(4-(2-Fluorophenyl)-1H-pyrrolo[2,3-b]pyridin-2-yl)-1H-pyrazolo [4,3-b]pyridin-5-yl)pyridin-3-yl)-N,N-dimethylmethanamine] as the compound, how does the EC50 [1] read?
Answer: > 10 µM

Question: And the inhibition at 10 µM [1]?
Answer: 8.3%

Question: And the EC50 (SW480 colon cancer cells)?
Answer: > 10 µM

Question: And the inhibition at 10 µM (SW480 colon cancer cells)?
Answer: 33.5%

Question: And the Emax [2]?
Answer: 44%

Question: With `c1cncc(-c2ccc3[nH]nc(-c4cc5c(-c6cccnc6)ccnc5[nH]4)c3n2)c1` [Compound 88, 5-(Pyridin-3-yl)-3-(4-(pyridin-3-yl)-1H-pyrrolo[2,3-b]pyridin-2-yl)-1H-pyrazolo[4,3-b]pyridine] as the compound, how does the EC50 [1] read?
Answer: > 10 µM

Question: What about the inhibition at 10 µM [1] of the same compound?
Answer: 10.1%

Question: What about the EC50 (SW480 colon cancer cells) of the same compound?
Answer: > 10 µM

Question: What about the inhibition at 10 µM (SW480 colon cancer cells) of the same compound?
Answer: 31.2%

Question: What about the EC50 [2] of the same compound?
Answer: 100 nM

Question: And the Emax [2]?
Answer: 59%

Question: `CN(C)c1cncc(-c2ccc3[nH]nc(-c4cc5c(-c6cccnc6)ccnc5[nH]4)c3n2)c1` [Compound 91, N,N-Dimethyl-5-(3-(4-(pyridin-3-yl)-1H-pyrrolo[2,3-b]pyridin-2-yl)-1H-pyrazolo[4,3-b]pyridin-5-yl)pyridin-3-amine] was tested. Which EC50 [1] did it give?
Answer: > 10 µM

Question: And the inhibition at 10 µM [1]?
Answer: 18.2%

Question: What about the EC50 (SW480 colon cancer cells) of the same compound?
Answer: > 10 µM

Question: What about the inhibition at 10 µM (SW480 colon cancer cells) of the same compound?
Answer: 3.5%

Question: What about the EC50 [2] of the same compound?
Answer: 30 nM

Question: What about the Emax [2] of the same compound?
Answer: 71%

Question: `CC(C)Nc1cncc(-c2ccc3[nH]nc(-c4cc5c(-c6cccnc6)ccnc5[nH]4)c3n2)c1` [Compound 96, N-Isopropyl-5-(3-(4-(pyridin-3-yl)-1H-pyrrolo[2,3-b]pyridin-2-yl)-1H-pyrazolo[4,3-b]pyridin-5-yl)pyridin-3-amine] was tested. Which EC50 [1] did it give?
Answer: 0.255 µM

Question: What about the EC50 (SW480 colon cancer cells) of the same compound?
Answer: > 10 µM

Question: And the inhibition at 10 µM (SW480 colon cancer cells)?
Answer: 0%

Question: What about the Emax [2] of the same compound?
Answer: 47%

Question: Which results are given for `FC1(F)CCN(Cc2cncc(-c3ccc4[nH]nc(-c5cc6c(-c7cccnc7)ccnc6[nH]5)c4n3)c2)C1` [Compound 110, 5-(5-((3,3-Difluoropyrrolidin-1-yl)methyl)pyridin-3-yl)-3-(4-(pyridin-3-yl)-1H-pyrrolo[2,3-b]pyridin-2-yl)-1H-pyrazolo[4,3-b]pyridine]?
Answer: EC50 [1]: > 10 µM; inhibition at 10 µM [1]: 47.7%; EC50 (SW480 colon cancer cells): > 10 µM; inhibition at 10 µM (SW480 colon cancer cells): 12.3%; EC50 [2]: 300 nM; Emax [2]: 80%

Question: `Nc1cncc(-c2ccc3[nH]nc(-c4cc5c(-c6ccncc6)ccnc5[nH]4)c3n2)c1` [Compound 115, 5-(3-(4-(Pyridin-4-yl)-1H-pyrrolo[2,3-b]pyridin-2-yl)-1H-pyrazolo[4,3-b]pyridin-5-yl)pyridin-3-amine] was tested. Which EC50 [1] did it give?
Answer: > 10 µM

Question: And the inhibition at 10 µM [1]?
Answer: 24.4%

Question: And the EC50 (SW480 colon cancer cells)?
Answer: > 10 µM

Question: What about the inhibition at 10 µM (SW480 colon cancer cells) of the same compound?
Answer: 17.5%

Question: What about the Emax [2] of the same compound?
Answer: 27%

Question: What does the source list for `Cc1ccncc1-c1ccc2[nH]nc(-c3cc4c(-c5ccncc5)ccnc4[nH]3)c2n1` [Compound 117, 5-(4-Methylpyridin-3-yl)-3-(4-(pyridin-4-yl)-1H-pyrrolo[2,3-b]pyridin-2-yl)-1H-pyrazolo[4,3-b]pyridine]?
Answer: EC50 [1]: > 10 µM; inhibition at 10 µM [1]: 11.8%; EC50 (SW480 colon cancer cells): > 10 µM; inhibition at 10 µM (SW480 colon cancer cells): 3.4%; EC50 [2]: 300 nM; Emax [2]: 56%

Question: For `c1cc(-c2ccnc3[nH]c(-c4n[nH]c5ccc(-c6cncc(CN7CCCCC7)c6)nc45)cc23)ccn1` [Compound 127, 5-(5-(Piperidin-1-ylmethyl)pyridin-3-yl)-3-(4-(pyridin-4-yl)-1H-pyrrolo[2,3-b]pyridin-2-yl)-1H-pyrazolo[4,3-b]pyridine], which EC50 [1] is on record?
Answer: > 10 µM

Question: What about the inhibition at 10 µM [1] of the same compound?
Answer: 5.8%

Question: What about the EC50 (SW480 colon cancer cells) of the same compound?
Answer: > 10 µM

Question: And the inhibition at 10 µM (SW480 colon cancer cells)?
Answer: 14.5%

Question: What about the EC50 [2] of the same compound?
Answer: 2700 nM

Question: What about the Emax [2] of the same compound?
Answer: 55%

Question: Which results are given for `c1cc(-c2ccnc3[nH]c(-c4n[nH]c5ccc(-c6cncc(CNCC7CCCC7)c6)nc45)cc23)ccn1` [Compound 137, 1-Cyclopentyl-N-((5-(3-(4-(pyridin-4-yl)-1H-pyrrolo[2,3-b]pyridin-2-yl)-1H-pyrazolo[4,3-b]pyridin-5-yl)pyridin-3-yl)methyl)methanamine]?
Answer: EC50 [1]: > 10 µM; inhibition at 10 µM [1]: 19.5%; EC50 (SW480 colon cancer cells): 3.72 µM; EC50 [2]: 100 nM; Emax [2]: 67%

Question: Which results are given for `Cc1ccncc1-c1ccc2[nH]nc(-c3cc4c(N5CCCCC5)ccnc4[nH]3)c2n1` [Compound 173, 5-(4-Methylpyridin-3-yl)-3-(4-(piperidin-1-yl)-1H-pyrrolo[2,3-b]pyridin-2-yl)-1H-pyrazolo[4,3-b]pyridine]?
Answer: EC50 [1]: 2.36 µM; EC50 (SW480 colon cancer cells): > 10 µM; inhibition at 10 µM (SW480 colon cancer cells): 49.2%; EC50 [2]: 900 nM; Emax [2]: 101%

Question: Which results are given for `c1cc(N2CCCCC2)c2cc(-c3n[nH]c4ccc(C5CCNCC5)nc34)[nH]c2n1` [Compound 601, 3-(4-(Piperidin-1-yl)-1H-pyrrolo[2,3-b]pyridin-2-yl)-5-(piperidin-4-yl)-1H-pyrazolo[4,3-b]pyridine]?
Answer: EC50 [1]: > 10 µM; inhibition at 10 µM [1]: 3.5%; EC50 (SW480 colon cancer cells): > 10 µM; inhibition at 10 µM (SW480 colon cancer cells): 40.7%

Question: Which results are given for `Cn1cc(-c2ccc3[nH]nc(-c4cc5cccnc5[nH]4)c3n2)cn1` [Compound 652, 5-(1-Methyl-1H-pyrazol-4-yl)-3-(1H-pyrrolo[2,3-b]pyridin-2-yl)-1H-pyrazolo[4,3-b]pyridine]?
Answer: EC50 [1]: 2.26 µM; EC50 (SW480 colon cancer cells): > 10 µM; inhibition at 10 µM (SW480 colon cancer cells): 29.2%

Question: `c1csc(-c2ccnc3[nH]c(-c4n[nH]c5ccc(-c6cncc(OC7CCCCC7)c6)nc45)cc23)c1` [Compound 703, 5-(5-(Cyclohexyloxy)pyridin-3-yl)-3-(4-(thiophen-2-yl)-1H-pyrrolo[2,3-b]pyridin-2-yl)-1H-pyrazolo[4,3-b]pyridine] was tested. Which EC50 [1] did it give?
Answer: 3.64 µM

Question: What about the EC50 (SW480 colon cancer cells) of the same compound?
Answer: > 10 µM

Question: What about the inhibition at 10 µM (SW480 colon cancer cells) of the same compound?
Answer: 52.9%
